Measurements published in patent US11185531B2, “Arginine methyltransferase inhibitors and uses thereof” (Epizyme, Inc., priority 2013, dated 2021).

How the values were obtained:
[1] = biological target: T1, human PRMT1 (Homo sapiens, UniProt Q99873); assay: PRMT1 Biochemical Assay (3H-SAM Flashplate, peptide substrate); conditions: 30 min preincubation
T1 construct: GST-tagged PRMT1; made in house; host or cells: High Five insect cells (baculovirus)
Text: (§1) Peptide representative of human histone H4 residues 36-50 was synthesized with an N-terminal linker-affinity tag motif and a C-terminal amide cap by 21st Century Biochemicals. The peptide was purified by high-performance liquid chromatography (HPLC) to greater than 95% purity and confirmed by liquid chromatography mass spectrometry (LC-MS). The sequence was Biot-Ahx-[…]-amide (SEQ ID NO.: 1).
Full-length human PRMT1 isoform 1 (NM_001536.5) transcript clone was amplified from an HEK 293 cDNA library, incorporating flanking 5′ sequence encoding a FLAG tag ([…]) (SEQ ID NO:2) fused directly to Met 1 of PRMT1. The amplified gene was subcloned into pFastBacI (Life Technologies) modified to encode an N-terminal GST tag and a TEV cleavage sequence
GST-tagged PRMT1 was eluted with 50 mM Tris, 2 mM glutathione, pH 7.8, dialysed in buffer A and concentrated to 1 mg/mL. The purity of recovered protein was 73%. Reference: Wasilko, D. J. and S. E. Lee: “TIPS: titerless infected-cells preservation and scale-up” Bioprocess J., 5 (2006), pp. 29-32.
General Procedure for PRMT1 Enzyme Assays on Peptide Substrates.
The assays were all performed in a buffer consisting of 20 mM Bicine (pH=7.6), 1 mM TCEP, 0.005% BSG, and 0.002% Tween 20, prepared on the day of use. Compounds in 100% DMSO (1 ul) were spotted into a polypropylene 384-well V-bottom plates (Greiner) using a Platemate Plus outfitted with a 384-channel head (Thermo Scientific). DMSO (1 ul) was added to Columns 11, 12, 23, 24, rows A-H for the maximum signal control and 1 ul of SAH, a known product and inhibitor of PRMT1, was added to columns 11, 12, 23, 24, rows I-P for the minimum signal control. A cocktail (40 ul) containing the PRMT1 enzyme was added by Multidrop Combi (Thermo-Fisher). The compounds were allowed to incubate with PRMT1 for 30 min at room temperature, then a cocktail (10 ul) containing SAM and peptide was added to initiate the reaction (final volume=51 ul). The final concentrations of the components were as follows: PRMT1 was 0.5 nM, ^3H-SAM was 200 nM, non-radiolabeled SAM was 1.5 uM, peptide was 20 nM, SAH in the minimum signal control wells was 1 mM, and the DMSO concentration was 2%. The assays were stopped by the addition of non-radiolabeled SAM (10 ul) to a final concentration of 300 uM, which dilutes the ^3H-SAM to a level where its incorporation into the peptide substrate is no longer detectable. 50 ul of the reaction in the 384-well polypropylene plate was then transferred to a 384-well Flashplate and the biotinylated peptides were allowed to bind to the streptavidin surface for at least 1 hour before being washed once with 0.1% Tween20 in a Biotek ELx405 plate washer. The plates were then read in a PerkinElmer TopCount plate reader to measure the quantity of ^3H-labeled peptide bound to the Flashplate surface, measured as disintegrations per minute (dpm) or alternatively, referred to as counts per minute (cpm).
(§2) Where dpm=disintegrations per minute, cmpd=signal in assay well, and min and max are the respective minimum and maximum signal controls.
(§3) Where top and bottom are the normally allowed to float, but may be fixed at 100 or 0 respectively in a 3-parameter fit. The Hill Coefficient normally allowed to float but may also be fixed at 1 in a 3-parameter fit. Y is the % inhibition and X is the compound concentration.

[2] = biological target: T2, human PRMT3 (Homo sapiens, UniProt O60678); assay: PRMT3 Biochemical Assay (3H-SAM Flashplate, peptide substrate); conditions: 30 min preincubation
T2 construct: GST-tagged PRMT3; made in house; host or cells: E. coli BL21(DE3) Gold
Text: as §1, with “containing the classic RMT substrate motif” for “representative of human histone H4 residues 36-50”, “NO:11).” for “NO.: 1).”
Full-length human PRMT3 (NM_005788.3) isoform 1 transcript clone was amplified from an HEK 293 cDNA library and subcloned into pGEX-KG (GE Life Sciences). The resulting construct encodes an N-terminal GST tag and a thrombin cleavage sequence
GST-tagged PRMT3 was eluted with 50 mM Tris, 2 mM glutathione, pH 7.1 and 50 mM Tris, 20 mM glutathione, pH 7.1. Pooled fractions were dialysed in 20 mM Tris, 50 mM NaCl, 5% glycerol, 1 mM EDTA, 1 mM DTT, pH7.5 (Buffer B) and applied to a Q Sepharose Fast Flow column. GST-tagged PRMT3 was eluted by 500 mM NaCl in buffer B. Pooled fractions were dialyzed in 25 mM phosphate buffer, 100 mM NaCl, 5% glycerol, 2 mM DTT, pH 6.8 (Buffer C) and loaded on to a ceramic hydroxyapatite column. GST-tagged PRMT3 eluted with 25-400 mM phosphate in buffer C. Protein was concentrated and buffer was exchanged to 20 mM Tris, 150 mM NaCl, 5% glycerol, 5 mM β-mercaptoethanol, pH7.8 by ultrafiltration. The purity of recovered protein was 70%.
General Procedure for PRMT3 Enzyme Assays on Peptide Substrates.
The assays were all performed in a buffer consisting of 20 mM Bicine (pH=7.6), 1 mM TCEP, 0.005% BSG, and 0.002% Tween 20, prepared on the day of use. Compounds in 100% DMSO (1 ul) were spotted into a polypropylene 384-well V-bottom plates (Greiner) using a Platemate Plus outfitted with a 384-channel head (Thermo Scientific). DMSO (1 ul) was added to Columns 11, 12, 23, 24, rows A-H for the maximum signal control and 1 ul of SAH, a known product and inhibitor of PRMT3, was added to columns 11, 12, 23, 24, rows I-P for the minimum signal control. A cocktail (40 ul) containing the PRMT3 enzyme was added by Multidrop Combi (Thermo-Fisher). The compounds were allowed to incubate with PRMT3 for 30 min at room temperature, then a cocktail (10 ul) containing SAM and peptide was added to initiate the reaction (final volume=51 ul). The final concentrations of the components were as follows: PRMT3 was 0.5 nM, ^3H-SAM was 100 nM, non-radiolabeled SAM was 1.8 uM, peptide was 330 nM, SAH in the minimum signal control wells was 1 mM, and the DMSO concentration was 2%. The assays were stopped by the addition of potassium chloride (10 ul) to a final concentration of 100 mM. 50 ul of the reaction in the 384-well polypropylene plate was then transferred to a 384-well Flashplate and the biotinylated peptides were allowed to bind to the streptavidin surface for at least 1 hour before being washed once with 0.1% Tween20 in a Biotek ELx405 plate washer. The plates were then read in a PerkinElmer TopCount plate reader to measure the quantity of ^3H-labeled peptide bound to the Flashplate surface, measured as disintegrations per minute (dpm) or alternatively, referred to as counts per minute (cpm).
as §2, §3

T2 sequence (O60678 with tags, fused parts or gaps): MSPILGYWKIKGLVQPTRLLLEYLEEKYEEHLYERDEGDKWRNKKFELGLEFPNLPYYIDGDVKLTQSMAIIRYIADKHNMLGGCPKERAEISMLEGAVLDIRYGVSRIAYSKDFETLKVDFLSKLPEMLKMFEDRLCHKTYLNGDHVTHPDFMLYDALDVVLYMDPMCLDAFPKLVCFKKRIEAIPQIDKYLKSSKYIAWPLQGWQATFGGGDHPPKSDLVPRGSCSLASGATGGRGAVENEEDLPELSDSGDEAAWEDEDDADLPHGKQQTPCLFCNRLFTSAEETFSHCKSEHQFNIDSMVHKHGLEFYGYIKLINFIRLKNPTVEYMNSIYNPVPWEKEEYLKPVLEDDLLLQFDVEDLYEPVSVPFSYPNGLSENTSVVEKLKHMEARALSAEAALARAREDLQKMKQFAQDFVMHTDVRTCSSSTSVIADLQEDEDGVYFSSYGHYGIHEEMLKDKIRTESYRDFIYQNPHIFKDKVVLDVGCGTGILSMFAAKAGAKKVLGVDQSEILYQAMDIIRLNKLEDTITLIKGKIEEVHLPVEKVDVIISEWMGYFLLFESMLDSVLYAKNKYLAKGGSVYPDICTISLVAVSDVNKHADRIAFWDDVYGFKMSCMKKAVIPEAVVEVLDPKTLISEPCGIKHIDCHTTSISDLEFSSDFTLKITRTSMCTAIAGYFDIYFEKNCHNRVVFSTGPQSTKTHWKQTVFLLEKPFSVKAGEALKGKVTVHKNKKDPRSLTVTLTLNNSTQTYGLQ
T1 sequence (Q99873 with tags, fused parts or gaps): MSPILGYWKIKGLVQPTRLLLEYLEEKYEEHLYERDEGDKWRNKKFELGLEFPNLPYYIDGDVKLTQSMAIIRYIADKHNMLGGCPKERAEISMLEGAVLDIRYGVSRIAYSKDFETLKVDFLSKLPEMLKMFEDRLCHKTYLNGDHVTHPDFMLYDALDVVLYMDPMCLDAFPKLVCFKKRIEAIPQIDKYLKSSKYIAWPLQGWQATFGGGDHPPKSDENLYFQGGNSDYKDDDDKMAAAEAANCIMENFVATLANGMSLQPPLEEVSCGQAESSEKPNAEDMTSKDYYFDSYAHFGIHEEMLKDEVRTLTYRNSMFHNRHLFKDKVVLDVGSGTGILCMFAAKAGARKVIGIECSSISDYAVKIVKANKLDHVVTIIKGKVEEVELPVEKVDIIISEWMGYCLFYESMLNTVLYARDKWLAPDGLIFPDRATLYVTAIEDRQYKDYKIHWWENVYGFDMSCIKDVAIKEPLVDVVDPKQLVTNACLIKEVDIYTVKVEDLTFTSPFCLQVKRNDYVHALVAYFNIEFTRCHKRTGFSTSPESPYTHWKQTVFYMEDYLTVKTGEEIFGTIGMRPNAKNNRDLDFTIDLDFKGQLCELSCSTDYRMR

Structure (SMILES) | IC50 [1] [nM] | IC50 [2] [nM]
CNCCN(C)Cc1c[nH]nc1C#Cc1cccc(OC)c1 [Compound 1] | < 100 | 3010 to 10000
CNCCN(C)Cc1c[nH]nc1C#Cc1ccc(C(C)(C)C)cc1 [Compound 2] | < 100 | 1010 to 3000
CNCCN(C)Cc1c[nH]nc1C#Cc1ccccc1 [Compound 3] | – | 3010 to 10000
CNCCN(C)Cc1c[nH]nc1C#Cc1ccc(F)cc1 [Compound 4] | < 100 | –
CNCCN(C)Cc1c[nH]nc1/C=C/c1ccc(-c2ccccc2)cc1 [Compound 5] | < 100 | 1010 to 3000
CNCCN(C)Cc1c[nH]nc1/C=C/c1ccc(C(F)(F)F)cc1 [Compound 6] | < 100 | 3010 to 10000
CNCCN(C)Cc1c[nH]nc1/C=C/c1ccc(OC)cc1 [Compound 7] | < 100 | 3010 to 10000
Cc1ccc(/C=C/c2n[nH]cc2CN(C)CCN)cc1 [Compound 8] | < 100 | 3010 to 10000
CN(CCN)Cc1c[nH]nc1C1=CCOCC1 [Compound 10] | 101 to 1000 | –
COc1cc(/C=C/c2n[nH]cc2CN(C)CCN)cc(OC)c1 [Compound 11] | < 100 | 1010 to 3000
CN(CCN)Cc1c[nH]nc1/C=C/c1ccc(F)cc1F [Compound 13] | < 100 | 3010 to 10000
CN(CCN)Cc1c[nH]nc1/C=C/c1cc(C(F)(F)F)cc(C(F)(F)F)c1 [Compound 14] | < 100 | 3010 to 10000
CN(CCN)Cc1c[nH]nc1/C=C/c1cc(F)cc(F)c1 [Compound 15] | < 100 | 1010 to 3000
CN(CCN)Cc1c[nH]nc1/C=C/c1cccc(C(F)(F)F)c1 [Compound 16] | < 100 | 3010 to 10000
COc1cccc(/C=C/c2n[nH]cc2CN(C)CCN)c1 [Compound 17] | < 100 | 1010 to 3000
CN(CCN)Cc1c[nH]nc1/C=C/c1ccc(C(F)(F)F)cc1 [Compound 18] | < 100 | 1010 to 3000
COC/C=C/c1n[nH]cc1CN(C)CCN [Compound 19] | 101 to 1000 | 3010 to 10000
CN(CCN)Cc1c[nH]nc1/C=C/c1cccc(F)c1 [Compound 20] | < 100 | 1010 to 3000

Structure (SMILES) | IC50 [1] [nM] | IC50 [2] [nM]
CC(C)c1n[nH]cc1CN(C)CCN [Compound 21] | 1010 to 3000 | –
CN(CCN)Cc1c[nH]nc1C1CCCCC1 [Compound 22] | < 100 | 3010 to 10000
CN(CCN)Cc1c[nH]nc1CCc1ccc(F)cc1 [Compound 23, N^1-((3-(4-fluorophenethyl)-1H-pyrazol-4-yl)methyl)-N^1-methylethane-1,2-diamine] | < 100 | 3010 to 10000
CN(CCN)Cc1c[nH]nc1/C=C/Cc1ccccc1 [Compound 24] | < 100 | –
CN(CCN)Cc1c[nH]nc1C1=CCCC1 [Compound 25] | 101 to 1000 | –
CC(C)Cc1n[nH]cc1CN(C)CCN [Compound 28, N^1-((3-iso-butyl-1H-pyrazol-4-yl)methyl)-N^1-methylethane-1,2-diamine] | 101 to 1000 | –
CCCc1n[nH]cc1CN(C)CCN [Compound 29] | 101 to 1000 | –
CNCCN(C)Cc1c[nH]nc1C1CCN(C(=O)Cc2ccccc2)CC1 [Compound 32] | 101 to 1000 | –
CN(CCN)Cc1n[nH]cc1C1CCCCC1 [Compound 33] | < 100 | –
CNCCN(C)Cc1c[nH]nc1C1CCN(C(=O)C(C)C)CC1 [Compound 34] | < 100 | –
CC1CCC(c2c[nH]nc2CN(C)CCN)CC1 (stereo not shown) [Compound 35] | < 100 | –
CN(CCN)Cc1n[nH]cc1C1CCC(C)(C)CC1 [Compound 36] | < 100 | –
CC1CCC(c2n[nH]cc2CN(C)CCN)CC1 (stereo not shown) [Compound 37, N^1-methyl-N^1-((3-(4-methylcyclohexyl)-1H-pyrazol-4-yl)methyl)ethane-1,2-diamine] | < 100 | –
CN(CCN)Cc1c[nH]nc1C1CCC(C)(C)CC1 [Compound 38, N^1-((3-(4,4-dimethylcyclohexyl)-1H-pyrazol-4-yl)methyl)-N^1-methylethane-1,2-diamine] | < 100 | –
CNCCN(C)Cc1c[nH]nc1C1CCN(C)CC1 [Compound 41] | < 100 | –
CNCCN(C)Cc1c[nH]nc1C1CCNCC1 [Compound 42] | < 100 | –
CN(CCN)Cc1n[nH]cc1C1CCC(N2CCOCC2)CC1 (stereo not shown) [Compound 44, N^1-methyl-N^1-((4-(4-morpholinocyclohexyl)-1H-pyrazol-3-yl)methyl)ethane-1,2-diamine] | 1010 to 3000 | –
